In patent US11591355B2 (Peloton Therapeutics, Inc., priority 2017, dated 2023) one finds IC50 data, which are given here for 16 molecules.

The IC50 is the concentration that inhibits the measured activity by half.

Assay [1] concerns the target T1, Human CD73 (Homo sapiens, UniProt P21589).
T1 construct: purchased R&D Systems; host or cells: CHO cells
T1 sequence (P21589 27-549): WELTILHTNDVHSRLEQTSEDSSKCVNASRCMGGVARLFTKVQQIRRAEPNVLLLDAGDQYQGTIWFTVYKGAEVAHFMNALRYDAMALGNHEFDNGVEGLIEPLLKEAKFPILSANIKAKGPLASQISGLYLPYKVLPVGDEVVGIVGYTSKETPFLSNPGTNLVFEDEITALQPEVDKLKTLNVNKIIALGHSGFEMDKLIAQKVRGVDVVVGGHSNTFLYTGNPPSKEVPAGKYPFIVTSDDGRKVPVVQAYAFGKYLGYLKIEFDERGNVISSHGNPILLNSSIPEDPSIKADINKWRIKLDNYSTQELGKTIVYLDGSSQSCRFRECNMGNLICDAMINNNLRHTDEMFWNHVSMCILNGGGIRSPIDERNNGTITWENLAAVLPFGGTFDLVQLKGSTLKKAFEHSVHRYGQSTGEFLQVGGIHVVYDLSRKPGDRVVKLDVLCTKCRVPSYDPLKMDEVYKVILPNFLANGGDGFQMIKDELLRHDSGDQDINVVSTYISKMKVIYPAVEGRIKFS
Description: CD73 Enzyme Assay. In kind it is biochemical. Conditions: 0.25 nM hCD73, 25 μM AMP, kinetic read at 360 nm; read-out: CD73 Enzyme Assay IC50.

For assay [2], the target named is T2, CD73 on U138 human neuroglioma cells (Homo sapiens, UniProt P21589).
T2 construct: U138 cells were obtained from ATCC and cultured in DMEM with 10% FBS; host or cells: U138 human neuroglioma cells
T2 sequence (P21589 27-549): T1 sequence (P21589 27-549)
The assay can be described thus: CD73 Cell-Based Assay. The settings on record: U138 cells, AMP substrate, 2 hours at 37° C., inorganic phosphate by malachite green. The essentials:
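Whole U138 cells washed free of phosphate were incubated with 200 μM AMP (mixture concentration before equal-volume addition) plus compound in HEPES-buffered saline, pH 7.4, for 2 h at 37 °C, 5% CO2. Adenosine-forming activity read as inorganic phosphate released into supernatant by malachite green.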

Take `N#Cc1nc(NC2CCCCC2)c2ccn([C@@H]3O[C@H](COCP(=O)(O)O)[C@@H](O)[C@H]3O)c2n1` [Compound 119, [(2R,3S,4R,5R)-5-[2-cyano-4-(cyclohexyl-amino)pyrrolo[2,3-d]-pyrimidin-7-yl]-3,4-dihydroxy-tetrahydro-furan-2-yl]methoxy-methylphosphonic acid]: the IC50 in assay [1] and in assay [2] was < 10 nM each time.

With `N#Cc1nc(N2CC3CCCC3C2)c2ccn([C@@H]3O[C@H](CS(=O)(=O)CP(=O)(O)O)[C@@H](O)[C@H]3O)c2n1` (stereo partly drawn) [Compound 158, [(2S,3S,4R,5R)-5-[4-(3,3a,4,5,6,6a-hexa-hydro-1H-cyclopenta-[c]pyrrol-2-yl)-2-cyano-pyrrolo[2,3-d]-pyrimidin-7-yl]-3,4-dihydroxy-tetrahydro-furan-2-yl]methyl-sulfonylmethylphos-phonic acid], the IC50 in assay [1] and in assay [2] was < 10 nM throughout.

With `C[C@H](Nc1nc(C#N)nc2c1ccn2[C@@H]1O[C@H](COCP(=O)(O)O)[C@@H](O)[C@H]1O)c1ccc(C2CC2)cc1` [Compound 204, [(2R,3S,4R,5R)-5-[2-cyano-4-[[(1S)-1-(4-cyclopropylphenyl)-ethyl]amino]pyrrolo-[2,3-d]pyrimidin-7-yl]-3,4-dihydroxy-tetra-hydrofuran-2-yl]-methoxymethylphos-phonic acid], the IC50 in assay [1] and in assay [2] was < 10 nM each time.

As to `CC(C)Nc1nc(Cl)nc2c1ccn2[C@@H]1O[C@H](CS(=O)(=O)CP(=O)(O)O)[C@@H](O)[C@H]1O` [Compound 162, [(2S,3S,4R,5R)-5-[2-chloro-4-(isopropyl-amino)pyrrolo[2,3-d]-pyrimidin-7-yl]-3,4-dihydroxy-tetrahydro-furan-2-yl]methyl-sulfonylmethylphos-phonic acid], the IC50 in assay [1] and in assay [2] was 10 to 100 nM in each case.

Consider `C[C@H](Nc1nc(C#N)nc2c1ccn2[C@@H]1O[C@H](COCP(=O)(O)O)[C@@H](O)[C@H]1O)c1ccccc1F` [Compound 80, [(2R,3S,4R,5R)-5-[2-cyano-4-[[(1S)-1-(2-fluorophenyl)ethyl]-amino]pyrrolo[2,3-d]-pyrimidin-7-yl]-3,4-dihydroxy-tetrahydro-furan-2-yl]methoxy-methylphosphonic acid], for which the 50% inhibitory concentration (IC50) in assay [1] and in assay [2] was < 10 nM in each case.

`C[C@H](Nc1nc(C#N)nc2c1ccn2[C@@H]1O[C@H](COCP(=O)(O)O)[C@@H](O)[C@H]1O)c1ccccc1` [Compound 67, [(2R,3S,4R,5R)-5-[2-cyano-4-[[(1S)-1-phenylethyl]amino]-pyrrolo[2,3-d]-pyrimidin-7-yl]-3,4-dihydroxy-tetrahydro-furan-2-yl]methoxy-methylphosphonic acid]: the figures for the IC50 in assay [1] and in assay [2] were 10 to 100 nM and < 10 nM, respectively.

In the case of `O=P(O)(O)CS(=O)(=O)C[C@H]1O[C@@H](n2ccc3c(N4CC5CC5C4)nc(Cl)nc32)[C@H](O)[C@@H]1O` (stereo partly drawn) [Compound 175, [(2S,3S,4R,5R)-5-[4-(3-azabicyclo[3.1.0]-hexan-3-yl)-2-chloro-pyrrolo[2,3-d]-pyrimidin-7-yl]-3,4-dihydroxy-tetrahydro-furan-2-yl]methyl-sulfonylmethylphos-phonic acid], the IC50 in assay [1] and in assay [2] was 10 to 100 nM each time.

Regarding `Cn1cc(-c2nc(NCc3ccccc3)c3ncn([C@@H]4O[C@H](COCP(=O)(O)O)[C@@H](O)[C@H]4O)c3n2)cn1` [Compound 9, [(2R,3S,4R,5R)-5-[6-(benzylamino)-2-(1-methylpyrazol-4-yl)-purin-9-yl]-3,4-dihydroxy-tetrahydro-furan-2-yl]methoxy-methylphosphonic acid], the IC50 in assay [1] is 100 to 1000 nM; in assay [2], > 1000 nM.

Regarding `N#Cc1nc(N2CCOCC2)c2ccn([C@@H]3O[C@H](COCP(=O)(O)O)[C@@H](O)[C@H]3O)c2n1` [Compound 127, [(2R,3S,4R,5R)-5-(2-cyano-4-morpholino-pyrrolo[2,3-d]-pyrimidin-7-yl)-3,4-dihydroxy-tetrahydro-furan-2-yl]methoxy-methylphosphonic acid], the IC50 in assay [1] and in assay [2] was 10 to 100 nM throughout.

In the case of `O=P(O)(O)COC[C@H]1O[C@@H](n2ccc3c(N4CC5CCCC5C4)nc(Cl)nc32)[C@H](O)[C@@H]1O` (stereo partly drawn) [Compound 103, [(2R,3S,4R,5R)-5-[4-(3,3a,4,5,6,6a-hexa-hydro-1H-cyclopenta-[c]pyrrol-2-yl)-2-chloro-pyrrolo[2,3-d]-pyrimidin-7-yl]-3,4-dihydroxy-tetrahydro-furan-2-yl]methoxy-methylphosphonic acid], the half-maximal inhibitory concentration (IC50) in assay [1] and in assay [2] was < 10 nM each time.

As to `O=P(O)(O)COC[C@H]1O[C@@H](n2cnc3c(-c4ccccc4)ncnc32)[C@H](O)[C@@H]1O` [Compound 46, [(2R,3S,4R,5R)-3,4-dihydroxy-5-(6-phenylpurin-9-yl)tetrahydrofuran-2-yl]methoxymethylphosphonic acid], the half-inhibitory concentration (IC50) in assay [1] and in assay [2] was > 1000 nM each time.

With `C[C@@H](Nc1nc(C#N)nc2c1cnn2[C@@H]1O[C@H](CS(=O)(=O)CP(=O)(O)O)[C@@H](O)[C@H]1O)c1ccc(F)cc1` [Compound 291, [(2S,3S,4R,5R)-5-[6-cyano-4-[[(1R)-1-(4-fluorophenyl)ethyl]-amino]pyrazolo[3,4-d]-pyrimidin-1-yl]-3,4-dihydroxy-tetrahydro-furan-2-yl]methyl-sulfonylmethylphos-phonic acid], the IC50 in assay [1] and in assay [2] was < 10 nM throughout.

As to `C[C@@H](Nc1nc(Cl)nc2c1ccn2[C@@H]1O[C@H](COCP(=O)(O)O)[C@@H](O)[C@H]1O)c1ccc(Cl)cc1` [Compound 94, [(2R,3S,4R,5R)-5-[2-chloro-4-[[(1R)-1-(4-chlorophenyl)ethyl]-amino]pyrrolo[2,3-d]-pyrimidin-7-yl]-3,4-dihydroxy-tetrahydro-furan-2-yl]methoxy-methylphosphonic acid], the IC50 in assay [1] and in assay [2] was < 10 nM each time.

On to `C[C@@H](Nc1nc(Cl)nc2c1ccn2[C@@H]1O[C@H](COCP(=O)(O)O)[C@@H](O)[C@H]1O)c1ccc(C#N)cc1` [Compound 89, [(2R,3S,4R,5R)-5-[2-chloro-4-[[(1R)-1-(4-cyanophenyl)ethyl]-amino]pyrrolo[2,3-d]-pyrimidin-7-yl]-3,4-dihydroxy-tetrahydro-furan-2-yl]methoxy-methylphosphonic acid], for which the concentration for half-maximal inhibition (IC50) in assay [1] and in assay [2] was < 10 nM each time.

Turning to `CNc1nc(Cl)nc2c1ccn2[C@@H]1O[C@H](COCP(=O)(O)O)[C@@H](O)[C@H]1O` [Compound 96, [(2R,3S,4R,5R)-5-[2-chloro-4-(methyl-amino)pyrrolo[2,3-d]-pyrimidin-7-yl]-3,4-dihydroxy-tetrahydro-furan-2-yl]methoxy-methylphosphonic acid], the IC50 in assay [1] and in assay [2] was 100 to 1000 nM in each case.

In the case of `O=P(O)(O)COC[C@H]1O[C@@H](n2ccc3c(-c4ccccc4)nc(Cl)nc32)[C@H](O)[C@@H]1O` [Compound 212, [(2R,3S,4R,5R)-5-(2-chloro-4-phenyl-pyrrolo[2,3-d]-pyrimidin-7-yl)-3,4-dihydroxy-tetrahydro-furan-2-yl]methoxy-methylphosphonic acid], the IC50 in assay [1] and in assay [2] was 10 to 100 nM in each case.
